Results taken from PMC4690813 (Journal of medicinal chemistry, 2015).

Columns and labels:
[1] = system: FAAH; test: FAAH activity reported in the literature; type: biochemical; settings: DAGLα pIC50 versus previously reported FAAH pKi
[2] = system: panel of serine hydrolases; settings: gel-based competitive ABPP; FAAH only detected off-target; ref [12], [13]; cited from earlier work
[3] = target: T1, recombinant human DAGLα (Homo sapiens, UniProt Q9Y4D2); test: colorimetric DAGLα activity assay; type: biochemical; settings: for LipE: LipE = pIC50 - cLogP; for fold drop in potency/activity: 2 compared to 1, 109 compared to 1, 122 compared to oleoyl analogue 121
T1 sequence (Q9Y4D2 1-1042): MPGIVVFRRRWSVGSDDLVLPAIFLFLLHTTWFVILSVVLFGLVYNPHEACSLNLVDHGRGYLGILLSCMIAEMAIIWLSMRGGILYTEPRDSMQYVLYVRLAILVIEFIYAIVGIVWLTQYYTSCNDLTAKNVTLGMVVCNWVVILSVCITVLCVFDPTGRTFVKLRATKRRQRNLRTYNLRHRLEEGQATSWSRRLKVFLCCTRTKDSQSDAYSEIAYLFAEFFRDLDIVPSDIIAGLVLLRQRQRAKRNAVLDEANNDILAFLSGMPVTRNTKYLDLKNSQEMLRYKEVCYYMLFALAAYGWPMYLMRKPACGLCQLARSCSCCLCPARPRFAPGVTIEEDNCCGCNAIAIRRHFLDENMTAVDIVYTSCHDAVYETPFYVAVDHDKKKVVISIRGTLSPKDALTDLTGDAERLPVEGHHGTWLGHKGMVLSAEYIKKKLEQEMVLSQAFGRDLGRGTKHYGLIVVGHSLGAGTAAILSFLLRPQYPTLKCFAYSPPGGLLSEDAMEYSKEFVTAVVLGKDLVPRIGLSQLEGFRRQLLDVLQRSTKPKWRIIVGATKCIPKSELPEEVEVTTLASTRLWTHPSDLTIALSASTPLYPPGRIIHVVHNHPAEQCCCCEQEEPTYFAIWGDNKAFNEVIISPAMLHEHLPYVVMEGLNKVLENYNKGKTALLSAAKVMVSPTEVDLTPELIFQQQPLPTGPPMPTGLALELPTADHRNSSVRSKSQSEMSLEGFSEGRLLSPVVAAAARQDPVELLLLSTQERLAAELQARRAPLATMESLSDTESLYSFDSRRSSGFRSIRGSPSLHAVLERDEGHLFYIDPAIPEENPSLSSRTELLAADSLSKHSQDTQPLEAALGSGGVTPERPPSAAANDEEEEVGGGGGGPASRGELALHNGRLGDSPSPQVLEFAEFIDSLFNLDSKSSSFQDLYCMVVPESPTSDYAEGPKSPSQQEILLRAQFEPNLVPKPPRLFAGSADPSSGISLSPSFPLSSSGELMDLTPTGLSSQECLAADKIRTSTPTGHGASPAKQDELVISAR

| Compound | LipE [3] | further results |
| --- | --- | --- |
| O=C(CCCCCCc1ccccc1)c1nc(C(=O)C(F)(F)F)co1 [Compound 45] |  | selectivity over FAAH [1]: selective over FAAH |
| O=C(CCCCCc1ccccc1)c1nc2ncccc2o1 [Compound 1, 1-(Oxazolo[4,5-b]pyridin-2-yl)-6-phenylhexan-1-one] | 3.35 | selectivity over a panel of serine hydrolases [2]: highly selective |
| CCCCC/C=C\C/C=C\C/C=C\C/C=C\CCCC(=O)c1nc2ncccc2o1 [Compound 122] |  | fold drop in potency/activity [3]: ~100 fold |
| O=C(CCCCCCc1ccccc1)c1ncc(-c2ccccn2)o1 [OL-135, reference compound] |  | DAGLα inhibitor activity (in words) [3]: not active |
| O=C(CCc1ccccc1)c1nc2ncccc2o1 [Compound 106, 1-(Oxazolo[4,5-b]pyridin-2-yl)-3-phenylpropan-1-one] | 2.11 |  |
| O=C(CCCCCCCCc1ccccc1)c1nc2ncccc2o1 [Compound 111] | 2.78 |  |
| O=C(CCCc1ccccc1)c1nc2ncccc2o1 [Compound 107, 1-(Oxazolo[4,5-b]pyridin-2-yl)-4-phenylbutan-1-one] | 2.64 |  |
| CCCCCCCC/C=C\CCCCCCCC(=O)c1nc2ccccc2[nH]1 [Compound 123] |  | selectivity over FAAH [1]: selective over FAAH |
| O=C(CCCCCCCc1ccccc1)c1nc2ncccc2o1 [Compound 110, 1-(Oxazolo[4,5-b]pyridin-2-yl)-8-phenyloctan-1-one] | 2.20 |  |
| O=C(CCCCc1ccccc1)c1nc2ncccc2o1 [Compound 108, 1-(Oxazolo[4,5-b]pyridin-2-yl)-5-phenylpentan-1-one] | 3.15 |  |
| O=C(CCCCCCc1ccccc1)c1nc2ncccc2o1 [Compound 109, 1-(Oxazolo[4,5-b]pyridin-2-yl)-7-phenylheptan-1-one] | 1.68 | fold drop in potency/activity [3]: > 10 fold |
